Test results from PMC9005681, “Use of AD Informer Set compounds to explore validity of novel targets in Alzheimer's disease pathology” (Alzheimer's & Dementia : Translational Research & Clinical …, 2022).
Several values for one entry are separate records, joined by “and”; a condition that tells them apart may be missing. Equal values may be shown once.

What was measured:
Assay in all cases: PDSP GPCR panel primary binding assays at 10 μM
[1] = target: T1, cloned human or rodent CNS receptors, channels, and transporters (PDSP panel) (Homo sapiens, UniProt P14416); details: primary assay
T1 construct: expressed in transfected cells
T1 sequence (P14416 whole entry): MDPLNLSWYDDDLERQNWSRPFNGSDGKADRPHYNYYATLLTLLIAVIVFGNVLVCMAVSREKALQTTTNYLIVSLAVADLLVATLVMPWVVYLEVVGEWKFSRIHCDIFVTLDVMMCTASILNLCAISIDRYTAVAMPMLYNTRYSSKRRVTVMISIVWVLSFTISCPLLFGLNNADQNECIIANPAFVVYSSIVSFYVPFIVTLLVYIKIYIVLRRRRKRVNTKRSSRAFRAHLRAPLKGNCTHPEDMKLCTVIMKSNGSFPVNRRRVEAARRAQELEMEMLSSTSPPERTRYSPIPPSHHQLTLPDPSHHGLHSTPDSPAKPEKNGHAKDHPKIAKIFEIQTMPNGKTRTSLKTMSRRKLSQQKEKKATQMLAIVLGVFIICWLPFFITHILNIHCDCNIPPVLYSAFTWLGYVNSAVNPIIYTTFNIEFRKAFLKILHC
Outline: (§1)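 PDSP panel of 46–47 cloned human or rodent CNS receptors, channels and transporters; radioligand displacement by compound at 10 μM, in quadruplicate. Where average displacement exceeded 50%, secondary binding followed as 11-point dose-response in triplicate (none for H3, PBR or GABAA).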

[2] = target: T2, cloned human or rodent CNS receptors, channels, and transporters (PDSP panel) (Homo sapiens, UniProt Q01959); details: DAT, primary assay; for Mean %: mean inhibition; for Inhibition 1: replicate 1; for Inhibition 2: replicate 2; for Inhibition 3: replicate 3; for Inhibition 4: replicate 4
T2 construct: expressed in transfected cells
T2 sequence (Q01959 whole entry): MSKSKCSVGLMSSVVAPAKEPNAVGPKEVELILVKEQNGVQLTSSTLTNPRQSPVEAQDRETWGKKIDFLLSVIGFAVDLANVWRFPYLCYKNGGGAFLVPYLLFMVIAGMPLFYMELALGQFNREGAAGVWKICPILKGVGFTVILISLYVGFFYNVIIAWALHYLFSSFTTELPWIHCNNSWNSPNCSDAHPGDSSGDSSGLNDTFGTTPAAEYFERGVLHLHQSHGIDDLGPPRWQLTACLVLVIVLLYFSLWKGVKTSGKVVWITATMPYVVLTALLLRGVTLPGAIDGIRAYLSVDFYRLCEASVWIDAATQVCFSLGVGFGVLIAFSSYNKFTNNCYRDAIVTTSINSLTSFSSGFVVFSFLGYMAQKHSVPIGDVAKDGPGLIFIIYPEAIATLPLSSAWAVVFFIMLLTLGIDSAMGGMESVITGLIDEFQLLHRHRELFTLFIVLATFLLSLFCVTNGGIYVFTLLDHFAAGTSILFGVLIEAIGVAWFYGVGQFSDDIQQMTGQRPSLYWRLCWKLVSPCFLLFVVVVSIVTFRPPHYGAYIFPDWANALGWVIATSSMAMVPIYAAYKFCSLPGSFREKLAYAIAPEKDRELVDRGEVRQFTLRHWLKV
Outline: as §1

[3] = target: T3, cloned human or rodent CNS receptors, channels, and transporters (PDSP panel) (Homo sapiens, UniProt P47898); details: primary assay
T3 construct: expressed in transfected cells
T3 sequence (P47898 whole entry): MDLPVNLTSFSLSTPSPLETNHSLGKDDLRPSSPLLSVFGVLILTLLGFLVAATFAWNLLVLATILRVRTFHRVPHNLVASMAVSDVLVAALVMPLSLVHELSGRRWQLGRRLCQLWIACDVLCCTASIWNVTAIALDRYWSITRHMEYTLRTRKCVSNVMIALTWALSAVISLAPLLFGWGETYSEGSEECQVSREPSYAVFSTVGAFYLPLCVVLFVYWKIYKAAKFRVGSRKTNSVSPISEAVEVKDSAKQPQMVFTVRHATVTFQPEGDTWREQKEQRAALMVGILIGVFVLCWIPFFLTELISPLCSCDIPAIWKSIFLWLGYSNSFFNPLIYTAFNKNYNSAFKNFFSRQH
Outline: as §1

[4] = target: T4, cloned human or rodent CNS receptors, channels, and transporters (PDSP panel) (Homo sapiens, UniProt P08173); details: primary assay
T4 construct: expressed in transfected cells
T4 sequence (P08173 1-479): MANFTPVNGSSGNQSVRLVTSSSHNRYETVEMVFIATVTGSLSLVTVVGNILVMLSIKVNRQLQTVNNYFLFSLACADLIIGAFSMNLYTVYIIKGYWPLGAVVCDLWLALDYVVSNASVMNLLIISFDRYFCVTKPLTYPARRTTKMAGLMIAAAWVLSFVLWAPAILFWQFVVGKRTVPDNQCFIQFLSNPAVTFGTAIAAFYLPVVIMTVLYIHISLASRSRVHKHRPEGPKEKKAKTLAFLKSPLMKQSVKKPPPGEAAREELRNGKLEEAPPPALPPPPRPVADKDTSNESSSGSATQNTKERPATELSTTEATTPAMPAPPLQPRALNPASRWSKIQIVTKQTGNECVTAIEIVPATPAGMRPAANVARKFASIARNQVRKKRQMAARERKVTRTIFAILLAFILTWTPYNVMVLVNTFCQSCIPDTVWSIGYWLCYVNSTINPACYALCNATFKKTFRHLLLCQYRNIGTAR
Outline: as §1

[5] = target: T5, cloned human or rodent CNS receptors, channels, and transporters (PDSP panel) (Rattus norvegicus, UniProt P16257); details: PBR, primary assay
T5 construct: expressed in transfected cells
Outline: as §1

[6] = target: T6, cloned human or rodent CNS receptors, channels, and transporters (PDSP panel) (Homo sapiens, UniProt P31645); details: primary assay
T6 construct: expressed in transfected cells
T6 sequence (P31645 whole entry): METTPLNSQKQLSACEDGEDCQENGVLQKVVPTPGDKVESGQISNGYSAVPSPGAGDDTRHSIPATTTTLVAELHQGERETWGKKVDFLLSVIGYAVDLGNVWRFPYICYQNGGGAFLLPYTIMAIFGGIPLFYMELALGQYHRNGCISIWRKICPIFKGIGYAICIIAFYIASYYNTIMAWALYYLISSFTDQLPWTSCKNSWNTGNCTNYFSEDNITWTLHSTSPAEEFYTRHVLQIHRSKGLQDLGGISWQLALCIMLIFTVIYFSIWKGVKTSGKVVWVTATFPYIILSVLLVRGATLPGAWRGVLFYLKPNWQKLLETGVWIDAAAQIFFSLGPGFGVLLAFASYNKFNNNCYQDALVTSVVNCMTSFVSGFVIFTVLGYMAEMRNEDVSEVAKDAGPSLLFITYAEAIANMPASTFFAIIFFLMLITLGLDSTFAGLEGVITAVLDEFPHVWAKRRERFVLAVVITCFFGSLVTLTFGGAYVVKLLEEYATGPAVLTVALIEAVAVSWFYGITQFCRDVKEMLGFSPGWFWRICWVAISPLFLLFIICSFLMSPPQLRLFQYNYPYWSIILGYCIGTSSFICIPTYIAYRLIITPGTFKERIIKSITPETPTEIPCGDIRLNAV
Outline: as §1

[7] = target: T7, cloned human or rodent CNS receptors, channels, and transporters (PDSP panel) (Homo sapiens, UniProt P28335); details: primary assay
T7 construct: expressed in transfected cells
T7 sequence (P28335 33-458): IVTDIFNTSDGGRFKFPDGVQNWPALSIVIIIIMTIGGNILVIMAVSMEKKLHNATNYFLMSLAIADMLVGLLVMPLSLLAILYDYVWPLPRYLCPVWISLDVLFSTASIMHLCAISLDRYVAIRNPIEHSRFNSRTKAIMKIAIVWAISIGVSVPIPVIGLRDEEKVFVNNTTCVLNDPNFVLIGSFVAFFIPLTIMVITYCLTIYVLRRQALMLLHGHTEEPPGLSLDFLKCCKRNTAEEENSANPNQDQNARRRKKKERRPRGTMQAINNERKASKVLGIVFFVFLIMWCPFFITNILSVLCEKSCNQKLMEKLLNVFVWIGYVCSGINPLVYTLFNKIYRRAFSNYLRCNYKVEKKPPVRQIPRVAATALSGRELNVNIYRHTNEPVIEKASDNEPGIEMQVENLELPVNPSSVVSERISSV
Outline: as §1

[8] = target: T8, cloned human or rodent CNS receptors, channels, and transporters (PDSP panel) (Homo sapiens, UniProt P18089); details: primary assay
T8 construct: expressed in transfected cells
T8 sequence (P18089 1-450): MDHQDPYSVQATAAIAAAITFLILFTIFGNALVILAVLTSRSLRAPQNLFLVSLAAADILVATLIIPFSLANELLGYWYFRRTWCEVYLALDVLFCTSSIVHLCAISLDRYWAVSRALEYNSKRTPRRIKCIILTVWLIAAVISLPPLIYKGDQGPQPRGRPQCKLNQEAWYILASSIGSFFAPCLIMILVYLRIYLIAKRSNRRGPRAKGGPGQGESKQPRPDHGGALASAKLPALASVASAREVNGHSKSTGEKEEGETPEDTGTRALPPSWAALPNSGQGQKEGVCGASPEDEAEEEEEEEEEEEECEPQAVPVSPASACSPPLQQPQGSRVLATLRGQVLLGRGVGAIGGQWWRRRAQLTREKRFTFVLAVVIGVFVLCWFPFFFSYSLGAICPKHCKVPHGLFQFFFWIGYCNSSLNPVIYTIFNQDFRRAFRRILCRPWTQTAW
Outline: as §1

Question: Which Mean % ([1]; D2, mean inhibition) does the source give for `O=C(NC1CC1)C(=O)C(Cc1ccccc1)NC(=O)[C@H]1CCC(=O)N1Cc1ccccc1` (stereo partly drawn) [UNC10302676A, ABT-957 (Alicapistat)] here?
Answer: -21.21%

Question: And the “Inhibition 1” value ([1]; D2, replicate 1)?
Answer: -14.25%

Question: What about the “Inhibition 2” value ([1]; D2, replicate 2) of the same compound?
Answer: -31.51%

Question: What about the “Inhibition 3” value ([1]; D2, replicate 3) of the same compound?
Answer: -11.38%

Question: And the “Inhibition 4” value ([1]; D2, replicate 4)?
Answer: -27.71%

Question: What about the Mean % [2] of the same compound?
Answer: 30.14%

Question: What about the “Inhibition 1” value [2] of the same compound?
Answer: 25.06%

Question: And the “Inhibition 2” value [2]?
Answer: 27.22%

Question: And the “Inhibition 3” value [2]?
Answer: 40.62%

Question: What about the “Inhibition 4” value [2] of the same compound?
Answer: 27.66%

Question: And the Mean % ([3]; 5-HT5A, mean inhibition)?
Answer: -3.42%

Question: What about the “Inhibition 1” value ([3]; 5-HT5A, replicate 1) of the same compound?
Answer: 4.48%

Question: What about the “Inhibition 2” value ([3]; 5-HT5A, replicate 2) of the same compound?
Answer: -8.24%

Question: And the “Inhibition 3” value ([3]; 5-HT5A, replicate 3)?
Answer: -6.55%

Question: What about the “Inhibition 4” value ([3]; 5-HT5A, replicate 4) of the same compound?
Answer: -3.37%

Question: What about the Mean % ([4]; M4, mean inhibition) of the same compound?
Answer: -0.92%

Question: And the “Inhibition 1” value ([4]; M4, replicate 1)?
Answer: -9.99%

Question: And the “Inhibition 2” value ([4]; M4, replicate 2)?
Answer: -2.41%

Question: What about the “Inhibition 3” value ([4]; M4, replicate 3) of the same compound?
Answer: -11.37%

Question: And the “Inhibition 4” value ([4]; M4, replicate 4)?
Answer: 20.1%

Question: And the “Inhibition 1” value ([5]; replicate 1)?
Answer: 2.97% and 17.9%

Question: What about the “Inhibition 2” value ([5]; replicate 2) of the same compound?
Answer: -4.68% and 2.11%

Question: And the “Inhibition 3” value ([5]; replicate 3)?
Answer: 1.91% and 4.11%

Question: What about the “Inhibition 4” value ([5]; replicate 4) of the same compound?
Answer: -8.81% and 7.78%

Question: And the Mean % ([6]; SERT, mean inhibition)?
Answer: -3.96% and -1.74%

Question: What about the “Inhibition 1” value ([6]; SERT, replicate 1) of the same compound?
Answer: 1.77% and -7.1%

Question: And the “Inhibition 2” value ([6]; SERT, replicate 2)?
Answer: -9.07% and 1.55%

Question: And the “Inhibition 3” value ([6]; SERT, replicate 3)?
Answer: -5.87% and 7.1%

Question: What about the “Inhibition 4” value ([6]; SERT, replicate 4) of the same compound?
Answer: -2.67% and -8.51%

Question: What about the Mean % ([7]; 5-HT2C, mean inhibition) of the same compound?
Answer: -3.07%

Question: What about the “Inhibition 1” value ([7]; 5-HT2C, replicate 1) of the same compound?
Answer: 14.23%

Question: What about the “Inhibition 2” value ([7]; 5-HT2C, replicate 2) of the same compound?
Answer: -14.23%

Question: What about the “Inhibition 3” value ([7]; 5-HT2C, replicate 3) of the same compound?
Answer: -2.94%

Question: What about the “Inhibition 4” value ([7]; 5-HT2C, replicate 4) of the same compound?
Answer: -9.33%

Question: And the Mean % ([8]; Alpha2B, mean inhibition)?
Answer: 8.48%

Question: What about the “Inhibition 1” value ([8]; Alpha2B, replicate 1) of the same compound?
Answer: 16.01%

Question: And the “Inhibition 2” value ([8]; Alpha2B, replicate 2)?
Answer: 17.34%

Question: What about the “Inhibition 3” value ([8]; Alpha2B, replicate 3) of the same compound?
Answer: -9.53%

Question: What about the “Inhibition 4” value ([8]; Alpha2B, replicate 4) of the same compound?
Answer: 10.08%

Question: `O=c1oc2ccccc2cc1-c1cn2cc(Cc3ccc(F)cc3)sc2n1` [UNC10302680A, iMDK] was tested. Which “Inhibition 1” value ([1]; Receptor D2, 10 μM) did it give?
Answer: 11.41%

Question: What about the “Inhibition 2” value ([1]; Receptor D2, 10 μM) of the same compound?
Answer: -7.84%

Question: And the “Inhibition 3” value ([1]; Receptor D2, 10 μM)?
Answer: -2.59%

Question: And the “Inhibition 4” value ([1]; Receptor D2, 10 μM)?
Answer: 7.52%

Question: And the Mean % ([1]; Receptor D2, 10 μM, mean of Inhibition 1-4)?
Answer: 2.13%

Question: And the Mean % [2]?
Answer: 24.58%

Question: And the “Inhibition 1” value [2]?
Answer: 19.55%

Question: What about the “Inhibition 2” value [2] of the same compound?
Answer: 22.26%

Question: And the “Inhibition 3” value [2]?
Answer: 29.6%

Question: And the “Inhibition 4” value [2]?
Answer: 26.9%

Question: What about the “Inhibition 1” value ([3]; Receptor 5-HT5A, 10 μM) of the same compound?
Answer: -14.99%

Question: What about the “Inhibition 2” value ([3]; Receptor 5-HT5A, 10 μM) of the same compound?
Answer: -18.16%

Question: And the “Inhibition 3” value ([3]; Receptor 5-HT5A, 10 μM)?
Answer: -6.28%

Question: What about the “Inhibition 4” value ([3]; Receptor 5-HT5A, 10 μM) of the same compound?
Answer: -0.35%

Question: What about the Mean % ([3]; Receptor 5-HT5A, 10 μM, mean of Inhibition 1-4) of the same compound?
Answer: -9.95%

Question: And the “Inhibition 1” value ([4]; Receptor M4, 10 μM)?
Answer: 4.02%

Question: What about the “Inhibition 2” value ([4]; Receptor M4, 10 μM) of the same compound?
Answer: 16.88%

Question: What about the “Inhibition 3” value ([4]; Receptor M4, 10 μM) of the same compound?
Answer: 25.61%

Question: What about the “Inhibition 4” value ([4]; Receptor M4, 10 μM) of the same compound?
Answer: 10.91%

Question: And the Mean % ([4]; Receptor M4, 10 μM, mean of Inhibition 1-4)?
Answer: 14.36%

Question: And the “Inhibition 1” value ([6]; Receptor SERT, 10 μM)?
Answer: -12.44% and -8.39%

Question: What about the “Inhibition 4” value ([6]; Receptor SERT, 10 μM) of the same compound?
Answer: -3% and 3.01%

Question: What about the Mean % ([6]; Receptor SERT, 10 μM, mean of Inhibition 1-4) of the same compound?
Answer: -8.37% and -12.73%

Question: And the “Inhibition 1” value ([7]; Receptor 5-HT2C, 10 μM)?
Answer: 16.2%

Question: And the “Inhibition 2” value ([7]; Receptor 5-HT2C, 10 μM)?
Answer: -2.94%

Question: What about the “Inhibition 3” value ([7]; Receptor 5-HT2C, 10 μM) of the same compound?
Answer: -21.1%

Question: And the “Inhibition 4” value ([7]; Receptor 5-HT2C, 10 μM)?
Answer: -2.94%

Question: What about the Mean % ([7]; Receptor 5-HT2C, 10 μM, mean of Inhibition 1-4) of the same compound?
Answer: -2.7%

Question: What about the “Inhibition 1” value ([8]; Receptor Alpha2B, 10 μM) of the same compound?
Answer: 0.83%

Question: And the “Inhibition 2” value ([8]; Receptor Alpha2B, 10 μM)?
Answer: 1.88%

Question: What about the “Inhibition 3” value ([8]; Receptor Alpha2B, 10 μM) of the same compound?
Answer: -7.31%

Question: And the “Inhibition 4” value ([8]; Receptor Alpha2B, 10 μM)?
Answer: 7.87%

Question: And the Mean % ([8]; Receptor Alpha2B, 10 μM, mean of Inhibition 1-4)?
Answer: 0.82%
